Results on 21 compounds are retold here after PubChem BioAssay (NCI).

Structures are written as SMILES.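 Where inhibition never reached the appropriate level, the endpoint shown equals the highest concentration tested. Otherwise, values were interpolated linearly from a five-concentration, 48-hour dose response in 96-well plates. TGI marks complete inhibition of growth.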 Where a SMILES comes first, the peptide text is derived from it. The star is where a group is joined. Boc = CC(C)(C)OC(=O)*; OBn = c1ccc(CO*)cc1

Among the test systems are SF-539 CNS; M14 melanoma; MDA-N; UACC-62 melanoma; MDA-MB-435; NCI-H522 lung.
Common to all, as to assay: NCI-60 cell line screen, 48 h

With `CC(C)/C(Cl)=N\OC(=O)Nc1ccc(F)cc1F`, the TGI in the assay with SF-539 CNS was found to be 30.6 µM; in the assay with M14 melanoma it was 13.3 µM; in the assay with MDA-N it was 22.7 µM; with UACC-62 melanoma it was 38.7 µM.
Consider `CCOP(=O)(OCC)C1=C(c2ccccc2)OC(N)=C(C#N)C1c1ccc(Cl)cc1` (stereo not given), for which the TGI with SF-539 CNS, with M14 melanoma, in the assay with MDA-N, with MDA-MB-435, with NCI-H522 lung and in the assay on UACC-62 melanoma was above 100 µM throughout.
Regarding `Cc1n[nH]c(=O)n1/N=C\CC/C=N\n1c(C)n[nH]c1=O`, the TGI with SF-539 CNS, in the assay on M14 melanoma, with MDA-N, in the assay on MDA-MB-435, in the assay on NCI-H522 lung and in the assay on UACC-62 melanoma was above 100 µM in each case.
As to `CC(NC(=O)C(Cc1ccccc1)NC(=O)C(Cc1ccccc1)NC(=O)OC(C)(C)C)C(=O)OCc1ccccc1` (stereo not drawn) (Boc-Phe-Phe-Ala-OBn; configuration not given here), the TGI with SF-539 CNS, in the assay with M14 melanoma, with MDA-N, in the assay on MDA-MB-435, with NCI-H522 lung and in the assay with UACC-62 melanoma was above 100 µM each time.
As to `CC(=O)N1N(c2ccc([N+](=O)[O-])cc2)C(=O)C1(C)C`, the TGI in the assay on SF-539 CNS was 49.7 µM; in the assay with M14 melanoma, 23.7 µM; with MDA-N it was above 100 µM; in the assay with MDA-MB-435 it was 63.1 µM; with NCI-H522 lung, 27.2 µM; in the assay with UACC-62 melanoma, 42.3 µM.
For the compound `Nc1ncnc2c1cnn2Cc1cn(COCC(O)CO)nn1` (stereo not given), the TGI was above 100 µM in the assay on SF-539 CNS; above 100 µM in the assay on M14 melanoma; above 100 µM with MDA-N; above 100 µM with MDA-MB-435; 30.8 µM in the assay on NCI-H522 lung; above 100 µM in the assay with UACC-62 melanoma.
`CC(C)(C)OC(=O)N/N=C(/N)Cc1ccccc1`: the TGI in the assay on SF-539 CNS, in the assay with M14 melanoma, in the assay with MDA-N, in the assay with MDA-MB-435, in the assay on NCI-H522 lung and in the assay on UACC-62 melanoma was above 100 µM in each case.
As for `O=C1NC(=O)C(COCc2ccccc2)C2=C1SCCC2` (stereo not given), the TGI with SF-539 CNS, with M14 melanoma, in the assay on MDA-N, in the assay with MDA-MB-435 and in the assay on NCI-H522 lung was above 100 µM each time.
For the compound `O=C1C(=Nc2ccccc2)Oc2cc(O)ccc21`, the TGI in the assay on SF-539 CNS, in the assay on M14 melanoma, in the assay with MDA-N, with MDA-MB-435, with NCI-H522 lung and in the assay with UACC-62 melanoma was above 100 µM each time.
Turning to `NNCCc1n[nH]c(=O)n1N`, the TGI in the assay with SF-539 CNS, in the assay on M14 melanoma, in the assay with MDA-N, in the assay on MDA-MB-435, in the assay on NCI-H522 lung and in the assay with UACC-62 melanoma was above 100 µM in each case.
Consider `NC(CCCCNC(=O)CNC(=O)OCc1ccccc1)C(=O)NC(CCCCNC(=O)CNC(=O)OCc1ccccc1)C(=O)NC(CCCCNC(=O)CNC(=O)OCc1ccccc1)C(=O)NC(CCCCNC(=O)CNC(=O)OCc1ccccc1)C(=O)NC(CCCCNC(=O)CNC(=O)OCc1ccccc1)C(=O)NC(CCCCNC(=O)CNC(=O)OCc1ccccc1)C(=O)O` (stereo not given), for which the TGI with M14 melanoma, in the assay on MDA-MB-435, in the assay with NCI-H522 lung and in the assay with UACC-62 melanoma was above 75 µM in each case.
Regarding `C[n+]1cccc2ccc(OC(=O)c3ccccc3)cc21`, the TGI in the assay on SF-539 CNS, in the assay on M14 melanoma, with MDA-N, with MDA-MB-435, in the assay on NCI-H522 lung and in the assay with UACC-62 melanoma was above 100 µM in each case.
Consider `O=C1CCCCC/C1=C\c1ccc(Cl)cc1`, for which the TGI in the assay with M14 melanoma is above 100 µM; in the assay on MDA-N, above 100 µM; in the assay on MDA-MB-435, 58.2 µM; in the assay with NCI-H522 lung it was 73 µM; with UACC-62 melanoma it was above 100 µM.
Consider `COC(=O)C1=C(C)NC(C)=C(C(=O)OC)C1c1cccc(NO)c1`, for which the TGI turned out to be 32.6 µM in the assay on SF-539 CNS; 33.2 µM in the assay on M14 melanoma; 28.5 µM with MDA-N; 30.9 µM with MDA-MB-435; 20.8 µM with NCI-H522 lung; 34.3 µM in the assay on UACC-62 melanoma.
As to `CCCCOCCOC1=CC(=O)c2c(O)ccc(O)c2C1=O`, the TGI was 2.94 µM in the assay on SF-539 CNS; 2.18 µM in the assay on M14 melanoma; 0.341 µM in the assay on MDA-N; 0.334 µM in the assay on MDA-MB-435; 2.93 µM in the assay with NCI-H522 lung; 2.98 µM with UACC-62 melanoma.
As to `COc1cc(/C=C2\C(=O)N(Cc3ccccc3)C(c3ccccc3)S2(=O)=O)cc(OC)c1OC` (stereo not given), the TGI in the assay on M14 melanoma, with MDA-N, in the assay with MDA-MB-435, in the assay with NCI-H522 lung and in the assay on UACC-62 melanoma was above 100 µM in each case.
In the case of `Cc1ccc(-c2c(C#N)c(N)nc3c2CCS(=O)(=O)c2ccccc2-3)cc1`, the TGI in the assay on MDA-N, in the assay with MDA-MB-435, with NCI-H522 lung and in the assay with UACC-62 melanoma was above 100 µM in each case.
With `c1ccc(C2OCC(OC3CCCCO3)CO2)cc1` (stereo not given), the TGI with SF-539 CNS, with M14 melanoma, in the assay with MDA-N, in the assay with MDA-MB-435, with NCI-H522 lung and in the assay on UACC-62 melanoma was above 100 µM each time.
`COc1cccc(C2SCC(=O)N2c2ccc(-n3c(-c4ccccc4)nc4ccccc4c3=O)cc2)c1OC` (stereo not given): the TGI in the assay on SF-539 CNS, in the assay with M14 melanoma, with MDA-N, with MDA-MB-435, in the assay with NCI-H522 lung and in the assay on UACC-62 melanoma was above 100 µM each time.
As for `CCOC(=O)Nc1nn(C)c(=NCc2ccccc2)s1`, the TGI in the assay with SF-539 CNS, with MDA-N, in the assay on MDA-MB-435, in the assay on NCI-H522 lung and in the assay on UACC-62 melanoma was above 100 µM throughout.
For `CC12c3c4cc(Br)cc3Oc3cc(Br)cc(c31)Oc1cc(Br)cc(c12)O4`, the TGI in the assay with SF-539 CNS, in the assay on M14 melanoma, with MDA-N, with MDA-MB-435 and with UACC-62 melanoma was above 100 µM throughout.
